Measured values published in patent US12351556B2, “Pyridin-2(1H)one derivatives, their preparation and their use for the treatment of pain” (INSTITUT NATIONAL DE LA SANTE ET DE LA RECHERCHE MEDICALE …, priority 2019, dated 2025).

Experiments:
NEK6 = NEK6 (Homo sapiens (Human), UniProt Q9HC98); test: ICKP protein kinase panel screening; type: biochemical; settings: duplicate assays, read-out: mean % residual activity
Experimental: (§1) FIG. 3 illustrates the human kinome. Compound 69 was evaluated at the International Center For Kinase Profiling (ICKP, Dundee, Scotland) toward a panel of 50 protein kinases that provide a representative sampling of the human kinome. The results were expressed as the mean percentage of residual activity at 10 μM concentration (duplicate assays). Small disks: ≥65%, larger disk: 19%. The black square indicates the kinome region containing protein kinases evaluated in a second screening (FIG. 4, Table 4). The tree was generated using the Kinome Render software, and the illustration reproduced courtesy of Cell Signaling Technology, Inc. (www.cellsignal.com) Chartier et al PeerJ 2013, 1:e126.
(§2) Results are expressed as the mean percentage of residual activity at 10 μM (Table 3) or 1 μM (Table 4). They are illustrated on FIGS. 3 and 4.
(§3) Studies were undertaken to identify the possible biological target(s) of compound 69. The activation in neurons of PK such as PKCγ, ERK or p38 MAPK can contribute to pain hypersensitivity. Therefore, it was decided to screen compound 69 toward a panel of 50 PKs that provide a representative sampling of the human kinome (FIG. 3, Table 3) (Biochem. J. 2007, 408, 297-315). In this panel, p38α MAPK was identified as the privileged target, with 19% of kinase residual activity at 10 μM compound concentration.

SRPK1 = SRPK1 (Homo sapiens (Human), UniProt Q96SB4); test: ICKP protein kinase panel screening; type: biochemical; settings: duplicate assays, read-out: mean % residual activity
SRPK1, sequence (Q96SB4 whole entry): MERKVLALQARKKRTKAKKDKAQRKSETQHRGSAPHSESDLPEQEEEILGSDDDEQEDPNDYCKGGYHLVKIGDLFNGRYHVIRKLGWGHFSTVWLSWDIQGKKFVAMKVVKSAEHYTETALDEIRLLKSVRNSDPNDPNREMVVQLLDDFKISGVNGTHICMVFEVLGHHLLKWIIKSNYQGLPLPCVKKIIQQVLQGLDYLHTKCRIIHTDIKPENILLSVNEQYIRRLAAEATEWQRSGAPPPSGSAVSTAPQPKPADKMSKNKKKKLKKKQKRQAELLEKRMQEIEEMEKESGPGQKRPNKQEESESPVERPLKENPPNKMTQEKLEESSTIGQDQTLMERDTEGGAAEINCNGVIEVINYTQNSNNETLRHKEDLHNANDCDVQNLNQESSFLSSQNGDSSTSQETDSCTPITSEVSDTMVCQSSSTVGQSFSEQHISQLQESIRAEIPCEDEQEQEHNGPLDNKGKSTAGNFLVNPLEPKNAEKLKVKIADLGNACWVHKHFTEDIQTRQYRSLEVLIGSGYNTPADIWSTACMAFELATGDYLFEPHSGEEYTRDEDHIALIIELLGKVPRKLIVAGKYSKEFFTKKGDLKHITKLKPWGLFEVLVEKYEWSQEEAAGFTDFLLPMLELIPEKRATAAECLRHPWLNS
Experimental: as §1, §2, §3

MSK1 = MSK1 (Homo sapiens (Human), UniProt O75582); test: ICKP protein kinase panel screening; type: biochemical; settings: duplicate assays, read-out: mean % residual activity
Experimental: as §1, §2, §3

PKA = PKA (Homo sapiens (Human), UniProt P17612); test: ICKP protein kinase panel screening; type: biochemical; settings: duplicate assays, read-out: mean % residual activity
Experimental: as §1, §2, §3

TAK1 = TAK1 (Homo sapiens (Human), UniProt O43318); test: ICKP protein kinase panel screening; type: biochemical; settings: duplicate assays, read-out: mean % residual activity
Experimental: as §1, §2, §3

SmMLCK = SmMLCK (Homo sapiens (Human), UniProt Q15746); test: ICKP protein kinase panel screening; type: biochemical; settings: duplicate assays, read-out: mean % residual activity
Experimental: as §1, §2, §3

RSK1 = RSK1 (Homo sapiens (Human), UniProt Q15418); test: ICKP protein kinase panel screening; type: biochemical; settings: duplicate assays, read-out: mean % residual activity
RSK1, sequence (Q15418 whole entry): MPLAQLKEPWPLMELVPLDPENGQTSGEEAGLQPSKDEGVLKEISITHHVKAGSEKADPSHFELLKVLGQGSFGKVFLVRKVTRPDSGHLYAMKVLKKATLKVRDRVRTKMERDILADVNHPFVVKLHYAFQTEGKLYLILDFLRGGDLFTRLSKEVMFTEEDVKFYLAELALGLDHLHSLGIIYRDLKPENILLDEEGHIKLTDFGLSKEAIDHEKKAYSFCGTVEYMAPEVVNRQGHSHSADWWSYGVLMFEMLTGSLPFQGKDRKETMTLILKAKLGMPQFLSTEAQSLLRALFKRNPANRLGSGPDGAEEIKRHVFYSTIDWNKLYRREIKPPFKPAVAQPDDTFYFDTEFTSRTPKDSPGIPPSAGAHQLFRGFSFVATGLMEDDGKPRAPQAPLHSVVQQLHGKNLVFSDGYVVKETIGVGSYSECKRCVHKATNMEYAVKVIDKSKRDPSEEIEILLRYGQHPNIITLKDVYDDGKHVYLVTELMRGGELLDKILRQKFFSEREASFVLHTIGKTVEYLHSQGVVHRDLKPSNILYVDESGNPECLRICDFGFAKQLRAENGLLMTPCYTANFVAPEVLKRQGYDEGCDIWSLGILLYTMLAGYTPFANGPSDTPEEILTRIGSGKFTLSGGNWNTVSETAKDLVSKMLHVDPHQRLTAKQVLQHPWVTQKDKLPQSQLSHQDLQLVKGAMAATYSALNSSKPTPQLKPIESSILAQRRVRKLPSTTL
Experimental: as §1, §2, §3

PIM1 = PIM1 (Homo sapiens (Human), UniProt P11309); test: ICKP protein kinase panel screening; type: biochemical; settings: duplicate assays, read-out: mean % residual activity
PIM1, sequence (P11309 whole entry): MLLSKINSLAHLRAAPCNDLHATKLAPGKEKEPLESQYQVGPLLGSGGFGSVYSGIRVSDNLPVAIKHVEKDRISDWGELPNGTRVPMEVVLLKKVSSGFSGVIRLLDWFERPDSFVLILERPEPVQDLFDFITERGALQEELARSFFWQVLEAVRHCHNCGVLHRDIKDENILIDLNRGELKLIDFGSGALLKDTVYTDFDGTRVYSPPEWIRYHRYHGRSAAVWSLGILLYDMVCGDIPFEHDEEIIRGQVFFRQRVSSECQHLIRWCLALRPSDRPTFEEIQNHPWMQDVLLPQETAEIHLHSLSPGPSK
Experimental: as §1, §2, §3

HIPK2 = HIPK2 (Homo sapiens (Human), UniProt Q9H2X6); test: ICKP protein kinase panel screening; type: biochemical; settings: duplicate assays, read-out: mean % residual activity
Experimental: as §1, §2, §3

MST2 = MST2 (Homo sapiens (Human), UniProt Q13188); test: ICKP protein kinase panel screening; type: biochemical; settings: duplicate assays, read-out: mean % residual activity
MST2, sequence (Q13188 whole entry): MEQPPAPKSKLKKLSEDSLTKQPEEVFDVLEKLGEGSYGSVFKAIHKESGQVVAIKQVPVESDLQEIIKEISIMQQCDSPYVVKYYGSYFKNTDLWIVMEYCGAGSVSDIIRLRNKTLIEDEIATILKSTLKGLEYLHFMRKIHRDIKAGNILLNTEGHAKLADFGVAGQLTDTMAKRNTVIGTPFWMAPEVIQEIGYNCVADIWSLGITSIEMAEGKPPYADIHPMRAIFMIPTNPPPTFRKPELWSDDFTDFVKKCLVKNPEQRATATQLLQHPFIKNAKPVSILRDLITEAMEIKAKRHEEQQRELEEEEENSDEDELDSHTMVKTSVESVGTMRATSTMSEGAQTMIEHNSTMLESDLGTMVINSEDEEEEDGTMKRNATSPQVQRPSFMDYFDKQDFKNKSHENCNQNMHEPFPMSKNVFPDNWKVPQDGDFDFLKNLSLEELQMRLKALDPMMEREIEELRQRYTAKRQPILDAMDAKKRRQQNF
Experimental: as §1, §2, §3

JAK3 = JAK3 (Homo sapiens (Human), UniProt P52333); test: ICKP protein kinase panel screening; type: biochemical; settings: duplicate assays, read-out: mean % residual activity
Experimental: as §1, §2, §3

PKBa = PKBa (Homo sapiens (Human), UniProt P31749); test: ICKP protein kinase panel screening; type: biochemical; settings: duplicate assays, read-out: mean % residual activity
PKBa, sequence (P31749 whole entry): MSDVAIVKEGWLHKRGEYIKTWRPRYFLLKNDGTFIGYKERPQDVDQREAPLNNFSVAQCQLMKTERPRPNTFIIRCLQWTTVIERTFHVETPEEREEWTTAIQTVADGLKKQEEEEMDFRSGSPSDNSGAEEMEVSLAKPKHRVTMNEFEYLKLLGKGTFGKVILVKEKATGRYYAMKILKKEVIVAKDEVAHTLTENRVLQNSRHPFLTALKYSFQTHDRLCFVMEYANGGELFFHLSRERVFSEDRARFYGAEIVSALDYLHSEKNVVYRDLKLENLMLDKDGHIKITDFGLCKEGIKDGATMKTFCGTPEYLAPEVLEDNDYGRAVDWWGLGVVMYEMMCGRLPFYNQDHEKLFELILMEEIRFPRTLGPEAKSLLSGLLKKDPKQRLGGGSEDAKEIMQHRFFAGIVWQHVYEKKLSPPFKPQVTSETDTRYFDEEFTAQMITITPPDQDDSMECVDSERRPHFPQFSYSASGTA
Experimental: as §1, §2, §3

MLK3 = MLK3 (Homo sapiens (Human), UniProt Q16584); test: ICKP protein kinase panel screening; type: biochemical; settings: duplicate assays, read-out: mean % residual activity
Experimental: as §1, §2, §3

DYRK1A = DYRK1A (Homo sapiens (Human), UniProt Q13627); test: ICKP protein kinase panel screening; type: biochemical; settings: duplicate assays, read-out: mean % residual activity
Experimental: as §1, §2, §3

[1] = system: inflammatory MA (face CFA model); test: Face Complete Freund's Adjuvant (CFA) model of inflammatory mechanical allodynia; type: in vivo; settings: rat, 10 mg/kg intra-peritoneally, 30 min before CFA
AMPK (hum) = test: ICKP protein kinase panel screening; type: biochemical, human; settings: 10 μM, duplicate assays
Experimental: as §1, §2, §3

ROCK 2 = test: ICKP protein kinase panel screening; type: biochemical, human; settings: 10 μM, duplicate assays
Experimental: as §1, §2, §3

CK2 = test: ICKP protein kinase panel screening; type: biochemical, human; settings: 10 μM, duplicate assays
Experimental: as §1, §2, §3

JNK3 = JNK3 (Homo sapiens (Human), UniProt P53779); test: ICKP protein kinase panel screening; type: biochemical; settings: duplicate assays, read-out: mean % residual activity
Experimental: (§4) FIG. 4 illustrates the studies carried out for compounds 67 and 69. Compounds 67 and 69 (FIG. 4B) were evaluated at the International Center For Kinase Profiling (ICKP, Dundee, Scotland) toward a panel of 13 protein kinases. The results (FIG. 4A) were expressed as the mean percentage of residual activity at 1 μM concentration (duplicate assays). Small disks: ≥90%, larger disk: 59%, for both compounds. The tree was generated using the Kinome Render software, and the illustration reproduced courtesy of Cell Signaling Technology, Inc. (www.cellsignal.com) Chartier et al PeerJ 2013, 1:e126.
as §2
(§5) The selectivity of compound 69 was evaluated at 1 μM toward another panel containing all four p38 MAPK isoforms, ERK1, ERK2 as well as other protein kinases close to p38α MAPK in the kinome phylogenetic tree (FIG. 4, Table 4). […] Its IC50 toward p38α MAPK was determined, showing a value in the micromolar range (IC50=3.0±0.1 μM).

ERK8 = ERK8 (Homo sapiens (Human), UniProt Q8TD08); test: ICKP protein kinase panel screening; type: biochemical; settings: duplicate assays, read-out: mean % residual activity
Experimental: as §4, §2, §5

CDK2-Cyclin A = CDK2-Cyclin A (Homo sapiens (Human), UniProt P24941); test: ICKP protein kinase panel screening; type: biochemical; settings: duplicate assays, read-out: mean % residual activity
Experimental: as §4, §2, §5

p38d MAPK = p38d MAPK (Homo sapiens (Human), UniProt O15264); test: ICKP protein kinase panel screening; type: biochemical; settings: duplicate assays, read-out: mean % residual activity
p38d MAPK, sequence (O15264 whole entry): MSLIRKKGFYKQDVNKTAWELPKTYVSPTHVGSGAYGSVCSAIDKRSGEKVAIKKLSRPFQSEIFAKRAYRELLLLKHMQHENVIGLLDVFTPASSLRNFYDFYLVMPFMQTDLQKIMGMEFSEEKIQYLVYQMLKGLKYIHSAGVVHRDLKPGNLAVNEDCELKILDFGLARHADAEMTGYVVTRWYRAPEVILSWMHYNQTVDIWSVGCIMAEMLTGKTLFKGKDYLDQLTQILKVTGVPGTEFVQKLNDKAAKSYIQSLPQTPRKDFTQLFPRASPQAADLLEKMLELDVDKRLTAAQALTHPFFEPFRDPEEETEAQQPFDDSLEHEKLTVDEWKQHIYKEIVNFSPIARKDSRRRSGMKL
Experimental: as §4, §2, §5

CDK5 = CDK5 (Homo sapiens (Human), UniProt Q00535); test: ICKP protein kinase panel screening; type: biochemical; settings: duplicate assays, read-out: mean % residual activity
Experimental: as §4, §2, §5

p38b MAPK = p38b MAPK (Homo sapiens (Human), UniProt Q15759); test: ICKP protein kinase panel screening; type: biochemical; settings: duplicate assays, read-out: mean % residual activity
p38b MAPK, sequence (Q15759 whole entry): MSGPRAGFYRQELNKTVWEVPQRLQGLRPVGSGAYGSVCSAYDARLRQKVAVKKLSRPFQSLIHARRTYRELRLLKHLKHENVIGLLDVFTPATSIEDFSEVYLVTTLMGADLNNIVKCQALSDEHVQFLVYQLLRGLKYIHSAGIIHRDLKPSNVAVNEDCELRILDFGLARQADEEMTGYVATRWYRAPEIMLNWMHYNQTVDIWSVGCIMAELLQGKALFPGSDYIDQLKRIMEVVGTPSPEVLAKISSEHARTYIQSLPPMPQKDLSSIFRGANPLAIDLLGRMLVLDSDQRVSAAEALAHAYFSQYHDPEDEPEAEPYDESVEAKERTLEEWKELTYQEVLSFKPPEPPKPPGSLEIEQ
Experimental: as §4, §2, §5

ERK1 = ERK1 (Homo sapiens (Human), UniProt P27361); test: ICKP protein kinase panel screening; type: biochemical; settings: duplicate assays, read-out: mean % residual activity
ERK1, sequence (P27361 whole entry): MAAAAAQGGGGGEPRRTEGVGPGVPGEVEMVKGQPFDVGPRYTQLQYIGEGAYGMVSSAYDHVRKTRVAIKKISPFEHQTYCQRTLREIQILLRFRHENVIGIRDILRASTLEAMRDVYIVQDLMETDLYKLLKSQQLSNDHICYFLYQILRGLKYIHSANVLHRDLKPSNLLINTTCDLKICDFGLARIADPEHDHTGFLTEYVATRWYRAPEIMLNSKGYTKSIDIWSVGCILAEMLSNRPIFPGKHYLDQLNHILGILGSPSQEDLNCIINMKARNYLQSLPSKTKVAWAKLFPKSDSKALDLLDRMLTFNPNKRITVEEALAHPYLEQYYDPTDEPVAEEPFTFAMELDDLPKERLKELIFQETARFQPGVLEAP
Experimental: as §4, §2, §5

ERK5 = ERK5 (Homo sapiens (Human), UniProt Q13164); test: ICKP protein kinase panel screening; type: biochemical; settings: duplicate assays, read-out: mean % residual activity
ERK5, sequence (Q13164 whole entry): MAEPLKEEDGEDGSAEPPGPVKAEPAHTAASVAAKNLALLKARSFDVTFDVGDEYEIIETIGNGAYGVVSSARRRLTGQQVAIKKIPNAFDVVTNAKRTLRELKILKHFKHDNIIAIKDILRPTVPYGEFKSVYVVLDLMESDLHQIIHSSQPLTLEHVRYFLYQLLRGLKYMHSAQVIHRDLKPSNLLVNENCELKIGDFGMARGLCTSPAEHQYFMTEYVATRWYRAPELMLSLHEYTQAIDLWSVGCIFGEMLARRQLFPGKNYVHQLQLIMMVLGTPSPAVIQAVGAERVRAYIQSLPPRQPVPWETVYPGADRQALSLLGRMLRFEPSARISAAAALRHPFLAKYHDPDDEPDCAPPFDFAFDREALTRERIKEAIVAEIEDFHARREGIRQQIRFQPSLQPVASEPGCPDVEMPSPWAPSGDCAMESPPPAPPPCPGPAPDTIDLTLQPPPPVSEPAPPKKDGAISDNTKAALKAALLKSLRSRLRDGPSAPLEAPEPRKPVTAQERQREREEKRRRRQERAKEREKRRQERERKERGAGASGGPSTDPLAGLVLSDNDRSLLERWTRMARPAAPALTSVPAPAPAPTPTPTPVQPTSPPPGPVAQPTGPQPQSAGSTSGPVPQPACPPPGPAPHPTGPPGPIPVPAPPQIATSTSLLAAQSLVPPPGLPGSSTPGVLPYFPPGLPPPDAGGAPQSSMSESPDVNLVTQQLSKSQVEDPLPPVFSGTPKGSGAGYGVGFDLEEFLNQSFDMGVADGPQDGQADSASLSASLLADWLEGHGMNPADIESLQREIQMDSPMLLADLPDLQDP
Experimental: as §4, §2, §5

JNK2 = JNK2 (Homo sapiens (Human), UniProt P45984); test: ICKP protein kinase panel screening; type: biochemical; settings: duplicate assays, read-out: mean % residual activity
Experimental: as §4, §2, §5

ERK2 = ERK2 (Homo sapiens (Human), UniProt P28482); test: ICKP protein kinase panel screening; type: biochemical; settings: duplicate assays, read-out: mean % residual activity
Experimental: as §4, §2, §5

p38g MAPK = p38g MAPK (Homo sapiens (Human), UniProt P53778); test: ICKP protein kinase panel screening; type: biochemical; settings: duplicate assays, read-out: mean % residual activity
p38g MAPK, sequence (P53778 whole entry): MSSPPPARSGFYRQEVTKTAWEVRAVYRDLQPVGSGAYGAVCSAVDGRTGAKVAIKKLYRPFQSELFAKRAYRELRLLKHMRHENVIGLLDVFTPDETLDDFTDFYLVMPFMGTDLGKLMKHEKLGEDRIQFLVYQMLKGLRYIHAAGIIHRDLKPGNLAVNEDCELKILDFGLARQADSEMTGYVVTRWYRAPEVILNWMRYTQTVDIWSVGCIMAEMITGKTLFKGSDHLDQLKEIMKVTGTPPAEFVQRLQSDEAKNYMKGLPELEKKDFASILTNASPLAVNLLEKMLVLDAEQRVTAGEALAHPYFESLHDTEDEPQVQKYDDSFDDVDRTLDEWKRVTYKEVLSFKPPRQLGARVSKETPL
Experimental: as §4, §2, §5

O=c1[nH]cc(Nc2ccccc2)cc1-c1ccccc1Br [Compound 69, 3-(2-Bromophenyl)-5-(phenylamino)pyridin-2(1H)-one]
remaining activity at 10 µM (NEK6): 102% | remaining activity at 10 µM (SRPK1): 81% | remaining activity at 10 µM (MSK1): 100% | remaining activity at 10 µM (PKA): 94% | remaining activity at 10 µM (TAK1): 68% | remaining activity at 10 µM (SmMLCK): 100% | remaining activity at 10 µM (RSK1): 94% | remaining activity at 10 µM (PIM1): 95% | remaining activity at 10 µM (HIPK2): 96% | remaining activity at 10 µM (MST2): 91% | remaining activity at 10 µM (JAK3): 107% | remaining activity at 10 µM (PKBa): 107% | remaining activity at 10 µM (MLK3): 109% | remaining activity at 10 µM (DYRK1A): 66% | prevention of inflammatory MA (allodynic score), systemic application [1]: completely suppressed | mean % residual activity (AMPK (hum)): 95% | mean % residual activity (ROCK 2): 105% | mean % residual activity (CK2): 94% | remaining activity at 1 µM (JNK3): 115% | remaining activity at 1 µM (ERK8): 144% | remaining activity at 1 µM (CDK2-Cyclin A): 119% | remaining activity at 1 µM (p38d MAPK): 112% | remaining activity at 1 µM (CDK5): 103% | remaining activity at 1 µM (p38b MAPK): 116% | remaining activity at 1 µM (ERK1): 120% | remaining activity at 1 µM (ERK5): 101% | remaining activity at 1 µM (JNK2): 103% | remaining activity at 1 µM (ERK2): 109% | remaining activity at 1 µM (p38g MAPK): 103%
